The subject of data set [1] is rats with acute cerebral ischemia-reperfusion. Nature of the data set: Cerebral infarction area of rats with acute cerebral ischemia-reperfusion (MCAO, suture method). Type of data set: in vivo, SD rats. More on the design: Cerebral Infarction Area: unit not given here. To be noted: n=5; for Cerebral Infarction Area: 4 mg/kg iv 2 h after reperfusion (2 h MCAO), sampled 4 h after administration; for inhibition in vivo at 4 mg/kg: Rattus norvegicus, 4 h, 4 mg/kg iv 2 h after reperfusion, vs solvent control, read-out: Percentage of Cerebral Infarction Area Reduction. Here is the method: (§1) Trial method: Effects on inflammatory factors and blood viscosity of rats with acute cerebral ischemia-reperfusion: 70 Male SD rats underwent an MACO surgery by a suture method, and after the surgery, alive rats were randomly grouped (into 7 groups, the number of successful animals in each group was guaranteed to be 6 to 8). Blood perfusion was recovered 2 h after MCAO, and corresponding trial medicaments were intravenously injected 2 h after blood reperfusion. 4 hours after the administration, blood was collected and the rats were sacrificed to take out brain tissues. The brain tissues and part of the blood were centrifuged to collect serum which was detected for inflammatory factors, and part of the blood was detected for blood viscosity by using a blood viscometer. Detected indicators: cerebral infarction area; inflammatory factors IL-1β and TNF-α; and blood viscosity.
Table 1 lists results of effects of phenylpropionate compounds (4 mg/kg) on cerebral infarction area of rats with acute cerebral ischemia (n=5).

The test system is the same in data set [2]. As to the kind of experiment: Blood viscosity of rats with acute cerebral ischemia-reperfusion (blood viscometer). To be noted: 4 mg/kg iv 2 h after reperfusion; blood 4 h after administration; n=5. Also on record: unit not given here. Format: in vivo, SD rats. Here is the method: as §1
Table 2 lists results of effects of phenylpropionate compounds (4 mg/kg) on blood viscosity of rats (n=5).

The next data set relates to TNF-α. As to the kind of experiment: Inflammatory factor TNF-α in blood and brain tissues of rats with acute cerebral ischemia-reperfusion. Format: in vivo, SD rats. To be noted: 4 mg/kg iv 2 h after reperfusion; 4 h after administration; n=5. How it is done: as §1
(§2) Table 3 lists results of effects of phenylpropionate compounds (4 mg/kg) on inflammatory factors in blood and brain tissues of rats (n=5).

A further data set deals with IL-1β. As to the kind of experiment: Inflammatory factor IL-1β in blood and brain tissues of rats with acute cerebral ischemia-reperfusion. Format: in vivo, SD rats. To be noted: 4 mg/kg iv 2 h after reperfusion; 4 h after administration; n=5. How it is done: as §1, §2
For data set [3], the system named is platelet aggregation induced with ADP. As to the kind of experiment: Maximum platelet aggregation rate of rabbits, induced with ADP. Format: cell-based. To be noted: rabbit plasma, 4 mg/kg as printed, n=3; for inhibition at 4 mg/kg: Oryctolagus cuniculus, Platelet. Here is the method: (§3) Effects on maximum platelet aggregation rate of rabbits: 3 Rabbits were anesthetized, and blood was collected from the heart to obtain 14 parts of plasma for each rabbit (1 ml per part of plasma). 7 Parts were induced with ADP to allow platelet aggregation, and 7 parts were induced with a platelet activating factor. After the induction, a solvent, positive control drug aspirin, and 5 samples to be trialed were separately added to the plasma, and maximum platelet aggregation rate was detected with a platelet aggregation meter. The trials were repeated 3 times, and an average was taken. Detected indicator: maximum platelet aggregation rate.
(§4) Table 4 lists results of effects of phenylpropionate compounds (4 mg/kg) on platelet aggregation rate of rabbits (n=3).

The subject of data set [4] is platelet aggregation induced with a platelet activating factor. As to the kind of experiment: Maximum platelet aggregation rate of rabbits, induced with PAF. The following applies: rabbit plasma, 4 mg/kg as printed; for inhibition at 4 mg/kg: Oryctolagus cuniculus, Platelet, n=3, read-out: Inhibiton rate on Aggregation; for Maximum Aggregation Rate: n=3. Type of data set: cell-based. Here is the method: as §3, §4

Data set [5] can be described thus: Distribution in brain: plasma and intracerebral concentrations after intravenous injection. Type of data set: in vivo. The following applies: both sexes, rat, rats, 4 mg/kg iv; for Kp at 10 min / Kp at 60 min / Kp at 180 min: brain/plasma, read-out: Brain/Blood Concentration Ratio. Here is the method: In this example, Compounds A to E, D-bornyl ferulate, and D-tanshinol borneol ester were measured for distribution in brain. Structures of D-bornyl ferulate (Patent Application No.: 201510243181.5) and D-tanshinol borneol ester compounds are as follows:
Method for testing distribution in brain: 42 rats with a weight range of 200±20 g were taken. The rats were randomly divided into 7 groups, with 6 rats per group, half male and half female. Rats were fasted with free access to water for 12 h and then intravenously injected with 4 mg/kg of a compound. Rats in the 3 groups were sacrificed through femoral artery bleeding and collected for blood 10 min, 60 min, 180 min after administration, respectively. Brains were taken out, 0.2 g was weighted, and 1 mL of pure water was added for homogenizing. The blood samples and brain homogenate samples were stored at −20° C.
Distribution of Compounds A to E, and D-bornyl ferulate and D-tanshinol borneol ester compounds in brain: Data on concentrations of Compounds A to E, D-bornyl ferulate, and D-tanshinol borneol ester in plasma and intracerebral in rats intravenously injected with 4 mg/kg of Compounds A to E, D-bornyl ferulate, and D-tanshinol borneol ester are listed in Table 9.

[6] abbreviates: brain, read-out: Mean Intracerebral Concentration.
[7] abbreviates: plasma, read-out: Mean Plasma Concentration.

Where two headings read alike, the source gives them in different places.

Regarding `CC(=O)Oc1ccccc1C(=O)O` [Aspirin, aspirin, reference compound], in data set [1], the “Cerebral Infarction Area” value is 22.7 ± 4.05 and the inhibition in vivo at 4 mg/kg is 38%. Also, in data set [2], the “Blood viscosity, High Shear” value turned out to be 2.64 ± 0.199 and the “Blood viscosity, Low Shear” value was 12.2 ± 0.742. The TNF-α in the data set with TNF-α came out at 647 ± 45.2 ng/L. In addition, the IL-1β in the data set with IL-1β was found to be 62.9 ± 11.5 ng/L. Also, in data set [3], the inhibition at 4 mg/kg turned out to be 54.1% and the “Maximum Aggregation Rate” value is on record as 14.8 ± 3.99 %. For the same molecule, in data set [4], the inhibition at 4 mg/kg came to 40.8% and the “Maximum Aggregation Rate” value was 41.3 ± 1.53 %.
Consider `COc1cc(CCC(=O)O[C@H]2C[C@H]3CC[C@]2(C)C3(C)C)cc(O)c1O` [Compound B], for which, in data set [1], the “Cerebral Infarction Area” value is recorded as 18.7 ± 7.16 and the inhibition in vivo at 4 mg/kg is 49%. In data set [2], the “Blood viscosity, High Shear” value came to 2.73 ± 0.122 and the “Blood viscosity, Low Shear” value turned out to be 13.9 ± 0.134. Moreover, the TNF-α with TNF-α is listed as 645 ± 42.3 ng/L. For the same molecule, in the data set with IL-1β, the IL-1β was 63.4 ± 5.6 ng/L. For the same molecule, in data set [3], the inhibition at 4 mg/kg was 46.8% and the “Maximum Aggregation Rate” value is given as 17.5 ± 2.84 %. For the same molecule, in data set [4], the inhibition at 4 mg/kg came to 55% and the “Maximum Aggregation Rate” value was found to be 32.1 ± 9.7 %. For the same molecule, in data set [5], the Kp at 10 min was 1.6, the Kp at 60 min stood at 4.5 and the Kp at 180 min turned out to be 1.8. In addition, in data set [5] (setting [6]), the concentration at 10 min was found to be 2490 ± 437 ng/g, the concentration at 60 min was 1270 ± 234 ng/g and the concentration at 180 min is 247 ± 87.5 ng/g. For the same molecule, in data set [5] (setting [7]), the concentration at 10 min stood at 1530 ± 581 ng/mL, the concentration at 60 min came out at 285 ± 105 ng/mL and the concentration at 180 min was 136 ± 60.4 ng/mL.
As to `COc1cc(CCC(=O)O[C@H]2C[C@H]3CC[C@]2(C)C3(C)C)c(Br)cc1O` [Compound D], in data set [1], the “Cerebral Infarction Area” value came out at 19.4 ± 4.61 and the inhibition in vivo at 4 mg/kg came to 47.1%. Further, in data set [2], the “Blood viscosity, High Shear” value is listed as 2.63 ± 0.312 and the “Blood viscosity, Low Shear” value stood at 13.3 ± 0.354. Also, the TNF-α in the data set with TNF-α amounted to 562 ± 34.2 ng/L. In the data set on IL-1β, this molecule gave an IL-1β of 53.4 ± 8.9 ng/L. In data set [3], the inhibition at 4 mg/kg turned out to be 55.3% and the “Maximum Aggregation Rate” value was 14.7 ± 7.42 %. Besides, in data set [4], the inhibition at 4 mg/kg was 34.6% and the “Maximum Aggregation Rate” value came to 46.7 ± 9.8 %. Moreover, in data set [5], the Kp at 10 min worked out at 1.6, the Kp at 60 min worked out at 4.6 and the Kp at 180 min amounted to 4. Besides, in data set [5] (setting [6]), the concentration at 10 min was 2260 ± 323 ng/g, the concentration at 60 min stood at 1430 ± 285 ng/g and the concentration at 180 min was found to be 485 ± 125 ng/g. In data set [5] (setting [7]), the concentration at 10 min is 1400 ± 236 ng/mL, the concentration at 60 min stood at 312 ± 115 ng/mL and the concentration at 180 min is 120 ± 22.7 ng/mL.
Take `CC1(C)[C@@H]2CC[C@@]1(C)[C@@H](OC(=O)CCc1ccc(O)c(OC(F)(F)F)c1)C2` [Compound E]: in data set [1], the “Cerebral Infarction Area” value is given as 19.8 ± 3.61 and the inhibition in vivo at 4 mg/kg was found to be 46%. Also, in data set [2], the “Blood viscosity, High Shear” value was 2.73 ± 0.405 and the “Blood viscosity, Low Shear” value is listed as 13.5 ± 1.183. This molecule came in with a TNF-α in the data set on TNF-α of 573 ± 43.0 ng/L. The IL-1β with IL-1β was found to be 64.3 ± 8.1 ng/L. In data set [3], the inhibition at 4 mg/kg came to 46.2% and the “Maximum Aggregation Rate” value worked out at 17.7 ± 5.46 %. Further, in data set [4], the inhibition at 4 mg/kg was 39.1% and the “Maximum Aggregation Rate” value came out at 43.5 ± 8.4 %. Moreover, in data set [5], the Kp at 10 min turned out to be 3.4, the Kp at 60 min was 3.5 and the Kp at 180 min came out at 3.7. In data set [5] (setting [6]), the concentration at 10 min is 3020 ± 527 ng/g, the concentration at 60 min amounted to 959 ± 337 ng/g and the concentration at 180 min is 314 ± 56.6 ng/g. Also, in data set [5] (setting [7]), the concentration at 10 min amounted to 887 ± 222 ng/mL, the concentration at 60 min came to 274 ± 102 ng/mL and the concentration at 180 min turned out to be 84.6 ± 42.3 ng/mL.

Source of the values: patent US11767286B2, “Phenylpropionate compound, preparation method for same, and applications thereof” (SUZHOU PHARMAVAN CO., LTD, priority 2017, dated 2023).
